Measured values reported in patent publication US20160368919A1, “NOVEL PYRIDINE PYRAZINONES AS BET-FAMILY BROMODOMAIN INHIBITORS” (Pfizer Inc., priority 2015, published 2016).

Assays:
[1] = test system: LPS-induced IL-6 production in human whole blood; test: IL-6 human whole blood (HWB) assay, LPS-stimulated, HTRF detection; type: cell-based; conditions: 1 ng/ml LPS, 4 hours
Method: Compound effect on IL-6 production was determined using lipopolysaccharide (LPS)-stimulated human whole blood and an HTRF (Homogeneous Time-Resolved Fluorescence) IL-6 detection kit (Human IL6 HTRF Assay CisBio 62IL6PEC). HWB was collected by venous puncture from healthy donors, transferred to a 50 ml polypropylene tube containing sodium heparin (14.3 units per mL of HWB) and then placed in a 37° C. water bath until use. To start the assay, 80 μL of heparin-treated HWB containing 1 ng/ml of LPS (equivalent to LPS ˜EC80 with regard to stimulation of IL-6 production in HWB under these assay conditions) was added to each well of a 384-well, sterile, endotoxin-free, polypropylene plate (Greiner 781281) containing 160 nL of various concentrations of test compound (each plate also contained positive and negative control wells to define the upper and lower limits of the assay signal). The plate was then placed in a thermoshaker incubator set to 370C (Boekel 270440). The final assay concentration (FAC) of test compound ranged from 60 to 0.0006 μM and the FAC of DMSO was 0.2%. After 4 hours, the assay plate was removed from the incubator and centrifuged at 700×g for 10 minutes. 5 μL of the resulting upper plasma layer was removed from each well and diluted 1:2 with 1×Dulbecco's phosphate buffered saline (DPBS). 5 μL of this diluted plasma was then transferred to a white 384-well low volume assay plate (Greiner 784080) containing 5 μL of combined anti-IL-6-Cryptate and anti-IL-6-XL665 detection antibodies (per manufacturer's protocol). The plate was then sealed with a Top Seal (Perkin Elmer 6005185) and incubated at room temperature (RT, 20° C.). After 16-18 hrs (overnight), the HTRF assay signal was read on an Envision 2103 plate reader using a Lance Delfia Dual/Bias mirror TRF laser excitation and emission was measured at 665 nm and 615 nm respectively. The percent (%) effect was calculated for each concentration of test compound and was relative to the amount of HTRF signal produced by the positive and negative control wells contained within each assay plate. The concentrations and % effect values for test compounds were plotted versus each other with a proprietary curve fitting program using a four-parameter logistic dose response equation and the concentration of compound required for 50% effect (IC50) was determined.

BRD4 BD1 = target: T1, BRD4 BD1 (Homo sapiens, UniProt O60885); test: BRD4 BD1 Fluorescence Polarization (FP) competition binding assay; conditions: BRD4 BD1 40 nM, probe PFI-411FP 2 nM
T1 construct: His-tagged BRD4 BD1 (44-160); made in house
Method: Compound binding to BRD4 BD1 was assessed with a FP competition binding assay. […] All assay components were diluted in 50 mM HEPES pH 7.4 containing 0.08% bovine serum albumin (assay buffer). To start the assay, 8 μL of BRD4 BD1 was added to each well of a low volume 384-well black flat bottom microtiter plate (Corning 3820) containing 4 μl of various concentrations of test compound (each plate also contained positive and negative control wells to define the upper and lower limits of the assay signal). After addition of BRD4 BD1, the assay plate was incubated at room temperature (RT, 20° C.). After 15 minutes, 4 μL of PFI-411FP was added to each well and the assay plate was placed in the dark at RT. The final assay concentration (FAC) of PFI-411FP was 2 nM, the FAC of BRD4 BD1 was 40 nM, the FAC of test compound ranged from 120 to 0.0012 μM and the FAC of DMSO was 0.4%. After 60 min, polarization values were measured with an Envision 2103 multilabel reader (Perkin Elmer) using a Cy5 dual enhanced mirror and excitation at 620 nm and emission at 688 nm. The percent (%) effect was calculated for each concentration of test compound and was relative to the amount of polarization signal produced by the positive and negative control wells contained within each assay plate. The concentrations and % effect values for test compounds were plotted versus each other with a proprietary curve fitting program using a four-parameter logistic dose response equation and the concentration of compound required for 50% effect (IC50) was determined. The Ki values of competitive inhibitors were calculated using the equation described by Nikolovska-Coleska et al. (Development and optimization of a binding assay for the XIAP BIR3 domain using fluorescence polarization. Analytical Biochemistry (2004) 332: 261-273).

IC50 [1] | IC50 (BRD4 BD1) | Compound
0.366 µM | 0.149 µM | CC[C@@H](c1ccccc1)n1c(=O)c(NCCC(=O)NC)nc2ccc(N(C)C(=O)C3CCO3)nc21 (stereo partly drawn) [Example 28, N-methyl-N-(2-{[3-(methylamino)-3-oxopropyl]amino}-3-oxo-4-[(1S)-1-phenylpropyl]-3,4-dihydropyrido[2,3-b]pyrazin-6-yl)oxetane-2-carboxamide]
0.266 µM | 0.0648 µM | CCC(=O)N(C)c1ccc2nc(NCCC(=O)NC)c(=O)n([C@@H](CC)c3ccccc3)c2n1 [Example 32, N-methyl-N^3-{6-[methyl(propanoyl)amino]-3-oxo-4-[(1S)-1-phenylpropyl]-3,4-dihydropyrido[2,3-b]pyrazin-2-yl}-beta-alaninamide]
0.747 µM | 0.195 µM | COc1ccccc1[C@H](C)n1c(=O)c(NCCN2CCOCC2)nc2ccc(-c3c(C)noc3C)nc21 [Example 35, 6-(3,5-dimethyl-1,2-oxazol-4-yl)-4-[(1S)-1-(2-methoxyphenyl)ethyl]-2-{[2-(morpholin-4-yl)ethyl]amino}pyrido[2,3-b]pyrazin-3(4H)-one]
0.823 µM | 0.123 µM | CC[C@@H](c1ccccc1)n1c(=O)c(NCCN2CCOCC2)nc2ccc(-c3c(C)noc3C)nc21 [Example 39, 6-(3,5-dimethyl-1,2-oxazol-4-yl)-2-{[2-(morpholin-4-yl)ethyl]amino}-4-[(1S)-1-phenylpropyl]pyrido[2,3-b]pyrazin-3(4H)-one]
1.39 µM | 0.225 µM | Cc1noc(C)c1-c1ccc2nc(NCCN3CCOCC3)c(=O)n([C@@H](C)c3ccccc3)c2n1 [Example 40, 6-(3,5-dimethyl-1,2-oxazol-4-yl)-2-{[2-(morpholin-4-yl)ethyl]amino}-4-[(1S)-1-phenylethyl]pyrido[2,3-b]pyrazin-3(4H)-one]
35.5 µM | 0.585 µM | Cc1noc(C)c1-c1ccc2nc(NCC(=O)O)c(=O)n([C@@H](C)c3ccccc3)c2n1 [Example 41, N-{6-(3,5-dimethyl-1,2-oxazol-4-yl)-3-oxo-4-[(1S)-1-phenylethyl]-3,4-dihydropyrido[2,3-b]pyrazin-2-yl}glycine]
6.16 µM | 0.146 µM | Cc1noc(C)c1-c1ccc2nc(NCCC(=O)O)c(=O)n([C@@H](C)c3ccccc3)c2n1 [Example 42, N-{6-(3,5-dimethyl-1,2-oxazol-4-yl)-3-oxo-4-[(1S)-1-phenylethyl]-3,4-dihydropyrido[2,3-b]pyrazin-2-yl}-beta-alanine]
8.35 µM | 0.576 µM | COc1ccccc1[C@H](C)n1c(=O)c(NCCC(=O)O)nc2ccc(-c3c(C)noc3C)nc21 [Example 43, N-{6-(3,5-dimethyl-1,2-oxazol-4-yl)-4-[(1S)-1-(2-methoxyphenyl)ethyl]-3-oxo-3,4-dihydropyrido[2,3-b]pyrazin-2-yl}-beta-alanine]
2.56 µM | 0.0898 µM | CC[C@@H](c1ccccc1)n1c(=O)c(NCCC(=O)O)nc2ccc(-c3c(C)noc3C)nc21 [Example 44, N-{6-(3,5-dimethyl-1,2-oxazol-4-yl)-3-oxo-4-[(1S)-1-phenylpropyl]-3,4-dihydropyrido[2,3-b]pyrazin-2-yl}-beta-alanine]

Further lines, the compound ahead of its results:

Compound | IC50 [1] | IC50 (BRD4 BD1)
CCC(=O)N(C)c1ccc2nc(NCCC(=O)O)c(=O)n(C3C(CC)CCC3CC)c2n1 (stereo not drawn) [Example 13, N-{4-(2,5-diethylcyclopentyl)-6-[methyl(propanoyl)amino]-3-oxo-3,4-dihdropyrido[2,3-b]pyrazin-2-yl}-beta-alanine] | 0.846 µM | 0.111 µM
COC[C@@H](c1ccccc1)n1c(=O)c(NCCC(=O)O)nc2ccc(N(C)C(C)=O)nc21 [Example 14, N-{6-[acetyl(methyl)amino]-4-[(1R)-2-methoxy-1-phenylethyl]-3-oxo-3,4-dihydropyrido[2,3-b]pyrazin-2-yl}-beta-alanine] | 4.8 µM | 0.223 µM
CCC[C@H](COC)n1c(=O)c(NCCC(=O)O)nc2ccc(N(C)C(=O)CC)nc21 [Example 17, N-{4-[(2R)-1-methoxypentan-2-yl]-6-[methyl(propanoyl)amino]-3-oxo-3,4-dihydropyrido[2,3-b]pyrazin-2-yl}-beta-alanine] | 2.43 µM | 0.268 µM
CCC(=O)N(C)c1ccc2nc(NC)c(=O)n(C(COC)COC)c2n1 [Example 20, N-(4-(1,3-dimethoxypropan-2-yl)-2-(methylamino)-3-oxo-3,4-dihydropyrido[2,3-b]pyrazin-6-yl)-N-methylpropionamide] | 1.46 µM | 1.07 µM
CC[C@@H](c1ccccc1)n1c(=O)c(NC(C)=O)nc2ccc(N(C)C(C)=O)nc21 [Example 21, N-{2-(acetylamino)-3-oxo-4-[(1S)-1-phenylpropyl]-3,4-dihydropyrido[2,3-b]pyrazin-6-yl}-N-methylacetamide] | 0.743 µM | 0.207 µM
CC[C@@H](c1ccccc1)n1c(=O)c(NCCC(=O)O)nc2ccc(N(C)C(=O)N(C)C)nc21 [Example 22, N-{6-[(dimethylcarbamoyl)(methyl)amino]-3-oxo-4-[(1S)-1-phenylpropyl]-3,4-dihydropyrido[2,3-b]pyrazin-2-yl}-beta-alanine] | 22.5 µM | 0.913 µM
CCC(=O)N(C)c1ccc2nc(NCCC(=O)O)c(=O)n([C@H](c3ccccn3)C(C)C)c2n1 [Example 23, N-{6-[methyl(propanol)amino]-4-[(1S)-2-methyl-1-(pyridin-2-yl)propyl]-3-oxo-3,4-dihydropyrido[2,3-b]pyrazin-2-yl}-beta-alanine] | 2.3 µM | 0.159 µM
CCC(=O)N(C)c1ccc2nc(NCC(=O)NC)c(=O)n([C@@H](CC)c3ccccc3)c2n1 [Example 29, N-methyl-N-(2-{[2-(methylamino)-2-oxoethyl]amino}-3-oxo-4-[(1S)-1-phenylpropyl]-3,4-dihydropyrido[2,3-b]pyrazin-6-yl)propanamide] | 0.239 µM | 0.102 µM
CCC(=O)N(C)c1ccc2nc(NCC(=O)NC)c(=O)n([C@H](c3ccccn3)C(C)C)c2n1 [Example 30, N-methyl-N-(2-{[2-(methylamino)-2-oxoethyl]amino}-4-[(1S)-2-methyl-1-(pyridin-2-yl)propyl]-3-oxo-3,4-dihydropyrido[2,3-b]pyrazin-6-yl)propanamide] | 0.722 µM | 0.348 µM
CCC(=O)N(C)c1ccc2nc(NCCC(=O)NC)c(=O)n([C@@H](COC)c3ccccc3)c2n1 [Example 31, N^3-{4-[(1R)-2-methoxy-1-phenylethyl]-6-[methyl(propanoyl)amino]-3-oxo-3,4-dihydropyrido[2,3-b]pyrazin-2-yl}-N-methyl-beta-alaninamide] | 0.164 µM | 0.11 µM
CCC(=O)N(C)c1ccc2nc(NCCC(=O)NC)c(=O)n([C@@H](CC)c3ccccn3)c2n1 [Example 33, N-methyl-N^3-{6-[methyl(propanoyl)amino]-3-oxo-4-[(1S)-1-(pyridin-2-yl)propyl]-3,4-dihydropyrido[2,3-b]pyrazin-2-yl}-beta-alaninamide] | 0.452 µM | 0.363 µM
CCC(=O)N(C)c1ccc2nc(NCCC(=O)NC)c(=O)n([C@H](c3ccccn3)C(C)C)c2n1 [Example 34, N-methyl-N^3-{6-[methyl(propanoyl)amino]-4-[(1S)-2-methyl-1-(pyridin-2-yl)propyl]-3-oxo-3,4-dihydropyrido[2,3-b]pyrazin-2-yl}-beta-alaninamide] | 0.426 µM | 0.167 µM
